Measurements as given in ChEMBL document CHEMBL2176976, “Ethylenediamine diacetate (EDDA) mediated synthesis of aurones under ultrasound: their evaluation as inhibitors of SIRT1” (Bioorg Med Chem Lett, 2012).
pIC50: −log10 of the molar value.

Columns and labels:
MCF7 = assay: Cytotoxicity against human MCF7 cells assessed as growth inhibition at 10 uM after 24 hrs by MTT assay (reference value: 0.15 %); assay type: functional; details: MCF7, 24 h, read-out: GI
MDA-MB-231 = assay: Cytotoxicity against human MDA-MB-231 cells assessed as growth inhibition at 10 uM after 24 hrs by MTT assay (reference value: 0.23 %); assay type: functional; details: MDA-MB-231, 24 h, read-out: GI
[1] = molecular target: T1, NAD-dependent protein deacetylase sirtuin-1 (Homo sapiens) (UniProt Q96EB6); assay: Inhibition of full length recombinant human SIRT1 expressed in Escherichia coli BL21 (DE3) PLysS using Fluor-de-Lys as substrate at 10 uM by fluorimetric assay
T1 sequence (whole entry): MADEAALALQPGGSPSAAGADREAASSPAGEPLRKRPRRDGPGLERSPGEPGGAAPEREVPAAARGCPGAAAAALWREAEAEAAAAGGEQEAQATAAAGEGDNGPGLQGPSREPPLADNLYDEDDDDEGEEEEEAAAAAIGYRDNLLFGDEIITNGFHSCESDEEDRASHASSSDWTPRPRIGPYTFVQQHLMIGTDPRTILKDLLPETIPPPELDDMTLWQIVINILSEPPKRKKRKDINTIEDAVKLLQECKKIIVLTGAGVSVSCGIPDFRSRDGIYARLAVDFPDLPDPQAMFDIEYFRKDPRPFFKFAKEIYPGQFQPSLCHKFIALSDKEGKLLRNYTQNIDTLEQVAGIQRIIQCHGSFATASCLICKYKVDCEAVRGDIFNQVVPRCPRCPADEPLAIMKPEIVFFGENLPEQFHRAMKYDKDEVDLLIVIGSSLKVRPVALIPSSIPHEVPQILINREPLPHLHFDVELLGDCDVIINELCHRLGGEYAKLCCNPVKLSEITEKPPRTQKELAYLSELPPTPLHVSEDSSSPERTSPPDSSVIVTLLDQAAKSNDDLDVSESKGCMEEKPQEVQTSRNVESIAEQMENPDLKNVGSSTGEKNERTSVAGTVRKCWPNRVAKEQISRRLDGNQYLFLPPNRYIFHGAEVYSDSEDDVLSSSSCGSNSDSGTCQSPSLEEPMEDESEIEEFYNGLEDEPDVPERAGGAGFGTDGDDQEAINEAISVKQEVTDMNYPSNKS

[2] = molecular target: T2, NAD-dependent protein deacetylase sirtuin-2 (Homo sapiens, UniProt Q8IXJ6); assay: Inhibition of human SIRT2
T2 sequence (Q8IXJ6 whole entry): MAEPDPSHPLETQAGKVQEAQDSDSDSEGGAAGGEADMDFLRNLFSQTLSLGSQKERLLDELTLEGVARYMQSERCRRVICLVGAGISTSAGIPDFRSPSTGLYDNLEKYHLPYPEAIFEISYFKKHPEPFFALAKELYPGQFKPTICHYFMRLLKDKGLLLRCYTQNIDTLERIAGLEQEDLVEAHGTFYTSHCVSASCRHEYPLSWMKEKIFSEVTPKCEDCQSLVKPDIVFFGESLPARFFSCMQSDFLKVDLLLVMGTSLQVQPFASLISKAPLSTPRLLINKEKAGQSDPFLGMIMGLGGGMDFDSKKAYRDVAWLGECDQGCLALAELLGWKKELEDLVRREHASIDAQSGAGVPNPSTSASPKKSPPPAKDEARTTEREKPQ

Row | SMILES | inhibition of growth at 10 µM (MCF7) | inhibition of growth at 10 µM (MDA-MB-231) | inhibition [1] | pIC50 [2]
1 | O=C1/C(=C/c2ccc(Br)cc2)Oc2ccccc21 | 34.5% | 30.8% | 71% | 
2 | O=C1NC(=S)NC(=O)C1=Cc1cccc2ccccc12 |  |  |  | 5.00
3 | COc1ccc(/C=C2\Oc3ccccc3C2=O)cc1 [4'-METHOXY-AURONE] | 29.6% | 18.1% | 32.5% | 
4 | O=C1/C(=C/c2ccc(F)cc2)Oc2ccccc21 | 20.1% | 16.5% | 50.5% | 
5 | Cc1ccc(C(=O)Nc2ccc(S(=O)(=O)O)c3cc(S(=O)(=O)O)cc(S(=O)(=O)O)c23)cc1NC(=O)c1cccc(NC(=O)Nc2cccc(C(=O)Nc3cc(C(=O)Nc4ccc(S(=O)(=O)O)c5cc(S(=O)(=O)O)cc(S(=O)(=O)O)c45)ccc3C)c2)c1 [SURAMIN] | 32% | 26% |  | 
